From US20110123483A1, “HMGB1 FOR CANCER TREATMENT” (DEUTSCHES KREBSFORSCHUNGSZENTRUM, priority 2009, published 2011)

Key:
[1] = test system: U251MG glioblastoma cells; assay: Cytotoxicity assay, cell survival by crystal violet staining; format: cell-based, human
Method: 20,000 U251MG glioblastoma cells or human astrocytic cells (ScienCell) were plated into 96-well plates. After 24 h cells were treated with rhHMGB1 (Sigma Aldrich) or rat recombinant HMGB1 (generously provided by Angelika Bierhaus, Heidelberg, Germany), and TRAIL (for 24 h) or Temozolomide (for 72 h) alone or in combination, respectively. […] Cell proliferation was assessed by seeding 50,000 U251 MG cells in 6 cm culture plates and treatment with rhHMGB1, followed by counting the cells in a Neubauer chamber at day 0, 2, 4 and 5.

[2] = test system: U251MG xenograft tumors; assay: Subcutaneous U251MG xenograft tumors in CD1 nude mice, systemic treatment; format: in vivo
Method: All animal work was carried out in accordance with the NIH guidelines Guide for the Care and Use of Laboratory Animals. Six-week-old male athymic CD1 nude mice (Charles River, n=8) were injected subcutaneously with 7.5×10^6 U251MG cells in 100 μl PBS in the right flank using a 30-gauge needle. After 3 weeks, treatment of the xenograft tumors was initiated with 10 μg rhHMGB1 in 500 μl PBS or PBS only (control group) by daily intraperitoneal injections at the contralateral side for 6 weeks. Tumor volume was measured by a calliper using the ellipsoid formula (length×width×height×½) as described (Tomayko and Reynolds, 1989). After 6 weeks of treatment the animals were sacrificed and the paraffin embedded tumor sections were subjected to immunofluorescence analysis as outlined below.
Paraffin embedded slices of mouse tissue or xenograft tumors were dewaxed and dehydrated using xylene and ethanol, followed by heat-induced antigen retrieval using 10 mM citrate buffer, pH 6.0, for 3×5 min in a cooker. The sections were incubated with 1:10 COX IV (Alexa Fluor® 488 conjugate) antibody over night at 4° C., washed with PBS and covered with Vectashield® mounting medium (H-1200, Vector Laboratories Inc., 94010 CA, USA) containing DAPI (1.5 μg/ml).

[3] = test system: U251 MG cells; assay: ROS measurement by DCF fluorescence and FACS analysis; format: cell-based, human; details: 40 nM, 24 h (FIG. 3A)
Method: For measurement of reactive oxygen species (ROS) and mitochondrial membrane potential (MMP) 1.5×10^6 U251 MG cells were seeded in 6 cm plates, treated with 40 nM rhHMGB1 for 24 h and incubated with the fluorescent DiOC6 (3,3′-dihexyloxacarbocyanine iodide, 40 nmol/ll, Sigma Chemical Co., St. Louis, Mo.) or with the fluorescent H2DCF-DA (dichlorodihydrofluorescein diacetate, 10 μM, Invitrogen) for 1 h at 37° C., respectively. The cells were trypsinized and centrifuged at 2,000 rpm for 5 min at 4° C. The supernatant was discarded and the pellet was washed 2× with sterile Dulbecco's PBS containing 0.1% fetal calf serum on ice and again centrifuged at 2,000 rpm for 5 min at 4° C. The pellet was resuspended in 500 μl sterile Dulbecco's PBS on ice. Oxidation of H2DCF to DCF by ROS and DiOC6 accumulation in mitochondria were measured immediately at FL-1 by flow cytometry using a FACScalibur (Beckton Dickinson, Heidelberg, Germany). Cell cycle was determined by measurement of priopidiumiodide (PI)-uptake of the cells according to standard procedures. Briefly, the cells were harvested and washed twice in sterile Dulbecco's PBS on ice, spun down at 2,000 rpm for 5 min at 4° C. and fixed with 70% ethanol for 30 min at 4° C. Contaminating RNA was eliminated by treatment with 100 μg/ml of RNase A, then 50 μg/ml PI was added and DNA content was measured immediately at FI-2. […]

[4] = test system: U251 MG cells; assay: Subcellular fractionation and Western blot: cytochrome c release, caspase 3 cleavage; format: cell-based, human; details: rhHMGB1 80 nM, 24 h (FIG. 6)
Method: The U251 MG tumor cells were lysed in lysis buffer containing 20 mmol/L Tris-HCl (pH 7.4), 137 mmol/L NaCl, 10% (v/v) glycerine, 1% Triton X-100, 2 mmol/L EDTA, 100 mmol/L phenylmethylsulfonyl fluoride, and protease inhibitors (Complete mini; Roche Molecular Biochemicals). For the detection of phosphoprotein levels, 10 mmol/L NaPPi, 50 mmol/L NaF, and 20 mmol/L NaVO4 were added to the lysis buffer. After 15 min incubation on ice, the lysates were centrifuged at 14,000×g for 10 min. The total protein concentration of the lysates was measured using the Bradford assay (Bio-Rad). Soluble protein (25-100 μg per lane) was separated on 10% to 15% polyacrylamide gels and blotted onto nitrocellulose by standard procedures. The membranes were washed, incubated with primary antibody as indicated: mouse anti-human caspase-3 (1:500, Imgenex, San Diego, Calif.); polyclonal rabbit anti-human phosphorylated p44/42 mitogen-activated protein kinase and polyclonal rabbit anti-human phosphorylated stress-activated protein kinase/JNK (1:1,000, Cell Signaling Technology, Inc.); polyclonal anti-rabbit JNK 54/46 (1:1,000, Cell Signaling Technology, Inc.); polyclonal rabbit anti-human IkBalpha (1:500, Santa Cruz Biotechnology, Inc.); mouse monoclonal anti-human BNIP3 (1:10,000, R&D Systems, Inc.); mouse monoclonal anti-human phosphorylated-histone H2A.X (Upstate, Inc.); mouse monoclonal anti-human cytochrome c (1:100, BD Biosciences Pharmingen GmbH, Heidelberg, Germany); mouse anti-human cytochrome c oxidase complex IV (1:100, Molecular Probes, Invitrogen, Karlsruhe, Germany); polyclonal rabbit antimalondialdehyde (1:250, Calbiochem, Merck, Darmstadt, Germany) and mouse monoclonal antibodies to β-tubulin or β-actin (1:3,000, Sigma Chemical Co., St. Louis, Mo.), washed, and incubated with the appropriate secondary antibody (1:3,000; horseradish peroxidase-conjugated, Bio-Rad). Bound antibodies were visualized using an enhanced chemiluminescence detection system (GE-Healthcare, Uppsala, Sweden).
Enrichment of mitochondrial fractions was performed using the ApoAlert Cell Fractionation Kit (Clontech, Mountain View, Calif.) as described previously (Gdynia et al., 2008). Briefly, after centrifugation and several washing steps, the cell pellet was resuspended in ice-cold 1× Fractionation Buffer Mix containing protease inhibitors (Complete mini; Roche Molecular Biochemicals, Indianapolis, Ind.) and 1 mM 1,4-Dithio-DL-threitol solution (DTT). After 10 min incubation on ice, cells were homogenized with a dounce tissue grinder. Efficiency of homogenization was controlled by microscopy. The homogenate was centrifuged at 700×g for 10 min at 4° C. and the resulting supernatant at 10,000×g for 25 min at 4° C. […]

Substance: rhHMGB1: recombinant human High Mobility Group B1 protein (Sigma Aldrich)
- cell death, combined treatment with TRAIL ([1]; 4 nM rhHMGB1 and TRAIL, 24 h (FIG. 1C)): strong synergistic induction of cell death
- cell death, combined treatment with Temozolomide ([1]; 4 nM rhHMGB1 and temozolomide, 72 h (FIG. 1C)): strong synergistic induction of cell death
- cell death ([1]; 80 nM, after 48 h): substantial cell death
- susceptibility to rhHMGB1-induced cell death ([1]; 72 h (FIG. 1B)): susceptible
- tumor size versus control group ([2]; 10 μg daily intraperitoneal, after six weeks (FIG. 1D)): significantly smaller tumors than the control group
- formation of megamitochondria in xenograft tumor tissue ([2]; after a 6 week systemic treatment (FIG. 9)): formation of megamitochondria was also observed
- generation of radical oxygen species (ROS) [3]: strong generation
- activation of caspase 3 [4]: neither activation of caspase 3
- release of cytochrome c [4]: nor release of cytochrome c was observed
